≈ marks a conversion by molar mass, not a printed value. Read-outs that look alike come from different tables or passages of the source.
How the values were obtained:
CDK2:CCNE1 = CDK2:CCNE1 (Homo sapiens (Human), UniProt P24941); test: NanoBRET assay in MCF-7 cells, CDK2; type: cell-based; conditions: transfected MCF-7 cells, 2 hours, n = 1 or average
Procedure: Compounds were tested in breast cancer cell line MCF-7 to assess inhibition of CDK1, CDK2, and CDK4 activity. […] The next day media were evacuated from the wells using the Bluewasher centrifugal plate washer (Bluecatbio) and 10 μL/well phenol red free OptiMEM was then added using a Multidrop Combi. […] Immediately after compound addition, a Tecan HP300 dispensor was used to dispense the relevant NanoBRET™ tracer to the CDK1 wells (12.5 nl, 400 μM, NanoBRET™ TE Tracer K-9), the CDK2 wells (12.5 nl, 200 μM, NanoBRET™ TE Tracer K-9), and the CDK4 wells (8 nl, 100 μM, NanoBRET™ TE Tracer K-7) and the plates were incubated for 2 hours at 37° C. and 5% CO2. […] The plates were incubated in subdued lighting for 10 minutes and then read on a Pherastar FS plate reader (BMG Technologies) using a NanoBRET™ filter module (460±80 nm/610 nm-LP). The ratio values were normalized to controls and the IC50 values of test compounds determined using Genedata Screener software.

CDK1:CCNB1 = CDK1:CCNB1 (Homo sapiens (Human), UniProt P06493); test: NanoBRET assay in MCF-7 cells, CDK1; type: cell-based; conditions: NanoBRET, transfected MCF-7 cells, 2 hours; n = 1 or average; read-out: CDK1 IC50
Chain of CDK1:CCNB1 (P06493 whole entry): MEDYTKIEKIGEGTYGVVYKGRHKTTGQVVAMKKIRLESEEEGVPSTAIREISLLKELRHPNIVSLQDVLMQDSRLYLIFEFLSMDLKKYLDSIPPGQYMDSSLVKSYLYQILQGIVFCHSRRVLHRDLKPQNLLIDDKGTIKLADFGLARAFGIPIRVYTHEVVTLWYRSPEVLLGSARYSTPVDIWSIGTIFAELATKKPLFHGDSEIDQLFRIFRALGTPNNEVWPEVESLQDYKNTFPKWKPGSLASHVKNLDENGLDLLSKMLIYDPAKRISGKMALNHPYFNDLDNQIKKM
Chain of CDK1:CCNB1 (P14635 whole entry partner): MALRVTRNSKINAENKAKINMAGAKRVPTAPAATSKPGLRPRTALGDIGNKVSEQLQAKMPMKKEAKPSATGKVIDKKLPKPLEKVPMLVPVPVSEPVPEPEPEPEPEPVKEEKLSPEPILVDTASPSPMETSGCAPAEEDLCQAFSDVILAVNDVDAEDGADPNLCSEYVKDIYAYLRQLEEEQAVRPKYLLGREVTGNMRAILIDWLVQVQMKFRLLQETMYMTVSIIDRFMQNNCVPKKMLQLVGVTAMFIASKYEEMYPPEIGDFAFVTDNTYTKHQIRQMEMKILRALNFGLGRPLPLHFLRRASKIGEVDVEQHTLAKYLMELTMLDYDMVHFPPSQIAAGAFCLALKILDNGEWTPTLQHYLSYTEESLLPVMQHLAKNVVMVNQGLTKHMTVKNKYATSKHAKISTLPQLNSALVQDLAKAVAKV
Procedure: (§1) Compounds were tested in breast cancer cell line MCF-7 to assess inhibition of CDK1, CDK2, and CDK4 activity. MCF-7 cells transiently transfected with CDK1:CCNB1, CDK2:CCNE1, or CDK4:CCND1 were harvested at a density of 1E5 cells/mL in complete media, seeded 20 μL/well into 384-well Greiner 784080 plates using a Multidrop Combi, and incubated overnight at 37° C. and 5% CO2. The next day media were evacuated from the wells using the Bluewasher centrifugal plate washer (Bluecatbio) and 10 μL/well phenol red free OptiMEM was then added using a Multidrop Combi. […] Immediately after compound addition, a Tecan HP300 dispensor was used to dispense the relevant NanoBRET™ tracer to the CDK1 wells (12.5 nl, 400 μM, NanoBRET™ TE Tracer K-9), the CDK2 wells (12.5 nl, 200 μM, NanoBRET™ TE Tracer K-9), and the CDK4 wells (8 nl, 100 μM, NanoBRET™ TE Tracer K-7) and the plates were incubated for 2 hours at 37° C. and 5% CO2. The plates were allowed to cool for 10 minutes at room temperature and 5 μL/well of TE Nano-Glo®Substrate/Inhibitor at 2.4 μM and 1:500 respectively (N2162 Promega) was added. The plates were incubated in subdued lighting for 10 minutes and then read on a Pherastar FS plate reader (BMG Technologies) using a NanoBRET™ filter module (460±80 nm/610 nm-LP). The ratio values were normalized to controls and the IC50 values of test compounds determined using Genedata Screener software.

CDK4:CCND1 = CDK4:CCND1 (Homo sapiens (Human), UniProt P11802); test: NanoBRET assay in MCF-7 cells, CDK4; type: cell-based; conditions: NanoBRET, transfected MCF-7 cells, 2 hours; n = 1 or average; read-out: CDK4 IC50
Chain of CDK4:CCND1 (P11802 whole entry): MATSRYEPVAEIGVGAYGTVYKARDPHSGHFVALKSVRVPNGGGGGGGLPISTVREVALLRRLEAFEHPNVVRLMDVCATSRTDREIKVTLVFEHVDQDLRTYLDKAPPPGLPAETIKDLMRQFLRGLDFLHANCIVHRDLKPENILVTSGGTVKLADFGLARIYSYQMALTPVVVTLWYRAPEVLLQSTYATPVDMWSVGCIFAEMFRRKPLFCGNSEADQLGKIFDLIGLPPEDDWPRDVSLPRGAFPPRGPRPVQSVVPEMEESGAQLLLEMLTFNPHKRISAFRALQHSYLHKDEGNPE
Chain of CDK4:CCND1 (P24385 whole entry partner): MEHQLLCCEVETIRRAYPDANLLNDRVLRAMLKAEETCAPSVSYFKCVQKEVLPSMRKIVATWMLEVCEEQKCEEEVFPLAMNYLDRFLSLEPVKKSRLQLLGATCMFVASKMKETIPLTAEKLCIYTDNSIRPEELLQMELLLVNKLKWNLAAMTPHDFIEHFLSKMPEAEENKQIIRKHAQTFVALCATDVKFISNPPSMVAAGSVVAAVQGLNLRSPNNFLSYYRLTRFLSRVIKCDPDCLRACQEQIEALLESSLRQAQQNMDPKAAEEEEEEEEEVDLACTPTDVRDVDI
Procedure: as §1

[1] = system: NPM phosphorylation (Thr199, CDK2-cyclin E complex); test: NPM phosphorylation imaging assay in MCF-7 cells; type: cell-based; conditions: 4N DNA cells
Procedure: Compounds were tested to assess the effects of CDK2 inhibition in a cellular context. […] During the cell cycle, the CDK2-cyclin E complex phosphorylates NPM at Thr199 which is a prerequisite step for initiation of centrosome duplication.
The cells were fixed by addition of 40 μL/well of 8% paraformaldehyde and incubated at room temperature for 10 minutes. The plates were washed three times with 50 μL/well PBS using a Biotek EL406 plate washer and then permeabilized for 10 minutes at room temperature in 0.3% Triton X100 in PBS. After washing as before, the plates were blocked using 30 μL/well of 2% BSA (w/v) in PBS-T for at least 30 minutes at room temperature. […] Cells containing 4N DNA were selected using the Hoechst staining. Phospho-NPM levels were normalized to controls and the IC50 values of test compounds determined using Genedata Screener software.

[2] = system: POLR2A Ser2 phosphorylation (CDK9); test: POLR2A Ser2 phosphorylation imaging assay in MCF-7 cells; type: cell-based; conditions: Homo sapiens, MCF7, 2 h, MCF-7 cells, 2 hours; read-out: POLR2A Ser2 phosphorylation IC50
Procedure: Compounds were tested to assess their effect on CDK9 activity in a cellular context. […] During the cell cycle, CDK9 is a component of a multiprotein complex that phosphorylates POLR2A Ser2 which results in transcription elongation.
[…] were fixed by addition of 40 μL/well of 8% paraformaldehyde and incubated for 10 minutes at room temperature. The plates were washed three times with 50 μL/well PBS using a Biotek EL406 plate washer and then permeabilized for 10 minutes at room temperature in 0.3% Triton X100 in PBS. After washing as before, the plates were blocked using 30 μL/well of 2% BSA (w/v) in PBS-T for over 30 minutes at room temperature. […] After washing in PBS as before, leaving each well in 40 μL of PBS, the plates were sealed and imaged on a Cell Insight imaging system (Thermo) with a 10× objective and 2 fields of view per well. POLR2A Ser2levels were normalized to controls and the IC50 values of test compounds determined using Genedata Screener software.

MCF-7 cells = test: Cellular proliferation EdU assay, MCF-7; type: cell-based; conditions: EdU assay, two days, read-out: MCF-7 IC50
Procedure: (§2) Compounds were tested to assess inhibition of cellular proliferation in the breast cancer cell line MCF-7 and the CCNE1-amplified ovarian cell line OVCAR3.
(§3) MCF-7 and OVCAR3 cells in RPMI supplemented with 10% Fetal bovine serum were seeded into 384-well plates (Greiner, Kremsmunster, Austria; 781091), 30 μL/well, using a WellMate. The MCF7 and OVCAR3 cells were seeded at 800 and 1200 cells/well, respectively. Test compounds were added to the wells using an Echo 555 liquid handler and the plates were placed in incubator maintained at 37° C. and 5% CO2 and incubated for two days. On Day 2, an EdU assay was performed following the manufacturer's protocol (Thermo Fisher, C10351). The cells were read on an Acumen eX3 instrument. The IC50 values of test compounds were determined in Genedata by assessing the ratio of signal intensity at 488 nm to the area of signal at 405 nm.

OVCAR3 cells = test: Cellular proliferation EdU assay, OVCAR3; type: cell-based, human; conditions: EdU assay, two days, read-out: OVCAR3 IC50
Procedure: as §2, §3

[3] = CLint assessment in human liver microsomes (HLM); type: in vitro ADME; conditions: 1 μM
Procedure: After a preincubation with NADPH for 8 minutes, reactions were initiated through the addition of the test compound (final volume 250 μl) and incubated at 37° C. in a water bath for 30 minutes. […] Samples were shaken at 800 rpm for 2 minutes and centrifuged at 4000 rpm for 20 minutes at 4° C. to pellet precipitated protein. The supernatant fraction was diluted 1:5 with deionized water, shaken at 1000 rpm for 2 minutes, and further diluted 1:1 with deionized water. Samples were analyzed by LC-MS/MS. The t1/2 and the CLint of the compounds incubated in the LM, HLM, and HμREL assays as described above were calculated according to the following equations: […] where V (μl/×10^6 cells or mg protein) is the incubation volume (μl) divided by the number of cells (×10^6) or microsomal protein content (mg) in the incubation.

[4] = Aqueous thermodynamic solubility, shake-flask; type: physicochemical; conditions: phosphate buffer 0.1 M, pH 7.4, 24 hours
Procedure: The DMSO was evaporated and the dried compounds were equilibrated in glass vials in aqueous phosphate buffer (0.1 M, pH 7.4) for 24 hours at 25° C. under constant stirring. The portion with the dissolved compound was then separated from the remainder through a double centrifugation with a tip wash in between to ensure that no residues of the dried compound were interfering. The solutions were diluted with purified water before quantification using UPLC/MS/MS.

[5] = aqueous phosphate buffer, 25 °C, pH 7.4, aqueous buffer, thermodynamic from solid

Row | Compound | IC50 (CDK2:CCNE1) [µM] | IC50 (CDK1:CCNB1) [µM] | IC50 (CDK4:CCND1) [µM] | IC50 ([1]; 2 hours) [µM] | IC50 [2] [µM] | IC50 (MCF-7 cells) [µM] | IC50 (OVCAR3 cells) [µM] | HLM CLint [3] [µL/min/mg] | solubility at 24 h ([4]; 25° C.) [µM] | IC50 ([1]; Homo sapiens, MCF7, 2 hours) [µM] | IC50 (MCF-7 cells; Homo sapiens, MCF7, 48 h) [µM] | IC50 (OVCAR3 cells; Homo sapiens, OVCAR-3, 48 h) [µM] | solubility at 24 h [4, 5] [µM] | IC50 ([1]; Homo sapiens, MCF7, 2 h) [µM]
1 | CCn1cnc2c(N[C@H]3CCN(S(=O)(=O)NC)C3)nc(N[C@@H](C)[C@@H](O)C(F)(F)F)nc21 (single isomer, unassigned) [Example 49, (S)-3-((9-ethyl-2-(((2R*,3S*)-4,4,4-trifluoro-3-hydroxybutan-2-yl)amino)-9H-purin-6-yl)amino)-N-methylpyrrolidine-1-sulfonamide] | 0.013 | 0.907 | 4.4 | 0.144 | 20.2 | 0.775 | 0.383 | 19.5 | 120 (≈ 56 µg/mL) | – | – | – | – | –
2 | CC[C@H](Nc1nc(N[C@H]2CCN(S(=O)(=O)NC[C@H]3COCCO3)C2)c2ncn(CC)c2n1)[C@@H](C)O [Example 23, (S)—N—(((S)-1,4-dioxan-2-yl)methyl)-3-((9-ethyl-2-(((2R,3S)-2-hydroxypentan-3-yl)amino)-9H-purin-6-yl)amino)pyrrolidine-1-sulfonamide] | 0.057 | 2.6 | > 29.7 | – | > 30 | – | – | 57.5 | – | 0.484 | 1.95 | 0.495 | 814 (≈ 417 µg/mL) | –
3 | CC(C)n1cnc2c(N[C@H]3CCN(S(C)(=O)=O)C3)nc(NC(CO)C3CCCO3)nc21 (stereo partly drawn) [Example 16, 2-((9-isopropyl-6-(((S)-1-(methylsulfonyl)pyrrolidin-3-yl)amino)-9H-purin-2-yl)amino)-2-(tetrahydrofuran-2-yl)ethan-1-ol] | 0.093 | 1.6 | 17.2 | – | > 30 | – | – | 96.5 | – | – | 2.52 | 0.964 | > 1000 | 0.368
4 | CC[C@H](Nc1nc(N[C@@H]2CN(S(=O)(=O)NC)C[C@H]2F)c2ncn(CC)c2n1)[C@@H](C)O (relative stereo) [Example 52, (3R*,4R*)-3-((9-ethyl-2-(((2R,3S)-2-hydroxypentan-3-yl)amino)-9H-purin-6-yl)amino)-4-fluoro-N-methylpyrrolidine-1-sulfonamide] | 0.021 | 1.2 | 16.8 | – | 11.1 | – | – | 21.1 | – | – | 1.02 | 0.252 | 300 (≈ 133 µg/mL) | 0.151

From US20250197425A1, “2,6,9-TRISUBSTITUTED PURINES” (ASTRAZENECA AB, priority 2022, published 2025)
